We go through 9 compounds from paper PMC12197363 (Viruses, 2025).

Where two headings read alike, the source gives them in different places.

In assay [1] the target is T1, Norovirus 3CL^pro (Norovirus GII.4, UniProt P54634).
T1 sequence (P54634 1009-1189): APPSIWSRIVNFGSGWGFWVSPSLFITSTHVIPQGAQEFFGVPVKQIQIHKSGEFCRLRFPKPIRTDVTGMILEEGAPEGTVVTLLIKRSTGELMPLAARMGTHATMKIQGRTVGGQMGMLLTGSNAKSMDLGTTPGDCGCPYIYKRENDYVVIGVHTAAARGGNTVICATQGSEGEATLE
Briefly: Cell-based FlipGFP assay of 3CLpro inhibition. The arrangement: species or system Norovirus genotype GII.4.

Assay [2] concerns Norovirus 3CL^pro. Briefly: Western blot of FlipGFP cleavage. It counts as cell-based. The conditions noted are these: at higher inhibitor concentrations, compared with C139A control. Background: In western blotting, separated proteins are transferred to a membrane and probed.
A further assay has as its system VEGFR2. Conditions: quoted in Description column of Table S1; no reference given; cited from earlier work.
The subject of another assay is c-Met. The conditions noted are these: quoted in Description column of Table S1; no reference given; cited from earlier work.

In general, IC50 refers to the concentration at which inhibition is half-maximal. At Norovirus 3CL^pro [1], `O=c1[nH]c2ccccc2n1C1CCN(Cc2ccc(-c3[nH]c4cc5ncnc5cc4nc3-c3ccccc3)cc2)CC1` [Akt inhibitor VIII] registered a half-maximal inhibitory concentration (IC50) of 590 ± 120 nM.

In the case of `N#Cc1ccc(O[C@H]2CC[C@H](NC(=O)c3ccc(N4CCC(CN5CCN(c6cc7c(cc6F)C(=O)N(C6CCC(=O)NC6=O)C7=O)CC5)CC4)nn3)CC2)cc1Cl` (some centres unmarked) [Bavdegalutamide], the IC50 on Norovirus 3CL^pro [1] was determined as 970 ± 240 nM.

`O=C(Nc1cccc(-c2nc(-c3ccc(NC(=O)c4cccnc4)cc3Cl)no2)c1)Nc1ccc(NC(=O)C2CC2)c(C(F)(F)F)c1` [EGFR-IN-8] displayed a concentration for half-maximal inhibition (IC50) against Norovirus 3CL^pro [1] of 290 ± 90 nM. Besides, the “Proteolytic cleavage of FlipGFP (Western blot)” value in the assay with Norovirus 3CL^pro [2] is given as “proteolytic cleavage was markedly reduced”.

Turning to `CC(C)C[C@H](NC(=O)OCc1ccccc1)C(=O)N[C@@H](CC1CCNC1=O)C(O)S(=O)(=O)O` (some centres unmarked) [GC376], at Norovirus 3CL^pro [1] (HEK293T cells co-transfected with 3CLpro-FlipGFP and 3CLpro, compound added 6 h, fluorescence read 24 h post-transfection, triplicate, read-out: IC50), the half-inhibitory concentration (IC50) was 2280 ± 170 nM.

Regarding `CCc1cc(Nc2nccc(-c3c(-c4ccc(OC)c(C(=O)Nc5c(F)cccc5F)c4)nc4ccccn34)n2)c(OC)cc1N1CCC(N2CCN(S(C)(=O)=O)CC2)CC1` [GSK1904529A], half-maximal inhibition on Norovirus 3CL^pro [1] (IC50) was put at 3940 ± 230 nM.

As for `CN(C)C1CCN(C(=O)c2ccc(NC(=O)Nc3ccc(-c4nc(N5CCOCC5)nc(N5CCOCC5)n4)cc3)cc2)CC1` [Gedatolisib], the “Proteolytic cleavage of FlipGFP (Western blot)” value in the assay with Norovirus 3CL^pro [2] is listed as “proteolytic cleavage was markedly reduced”.

As for `CN1CCN(C2CCN(C(=O)Nc3cc(Oc4ccc(NC(=O)C5(C(=O)Nc6ccc(F)cc6)CC5)c(F)c4)ccn3)CC2)CC1` [Golvatinib], the half-maximal inhibitory concentration (IC50) in the assay with VEGFR2 is 16 nM; in the assay on c-Met, 14 nM.

`O=C(c1ccc(Nc2nccc(-c3cc4ccccc4s3)n2)cc1)N1CCC(N2CCCC2)CC1` [IKK 16]: the IC50 at Norovirus 3CL^pro [1] is 5090 ± 160 nM.

As to `CC(=O)N1CCC(c2cc(-c3ccc(NC(=O)c4cccn(-c5ccc(F)cc5)c4=O)cc3F)c3c(N)ncnn23)CC1` [TAM-IN-2], the IC50 on Norovirus 3CL^pro [1] stood at 1220 ± 440 nM.
